Source: patent US20050070480A1, “Peptide arginals and methods for treating disseminated intravascular coagulation” (priority 2001, published 2005)
Where two headings read alike, the source gives them in different places. Non-standard residues stand in square brackets, D forms with d. Residues, ends and D or L forms follow the SMILES beside them. dNMeChg = CN[C@@H](C(=O)O)C1CCCCC1; Aze = O=C(O)[C@@H]1CCN1

Assays:
[1] = target: clot-bound thrombin (Homo sapiens, UniProt P00734); assay: Enzyme inhibition in platelet-rich plasma clots, chromogenic substrate Tos-Gly-Pro-Arg-pNA; assay type: biochemical; settings: for IC50: clot-bound thrombin, platelet-rich plasma clot
Procedure: (§1) Tos-Gly-Pro-Arg-pNA (S1) for thrombin and Moc-D-Chg-Gly-Arg-pNA (S2) for factor Xa, as published (Bajusz, S. et al.: PCT Pub. No. WO97/46576) briefly. The assays were carried out at room temperature in glass tubes and 96-well microtiter plates.
(§2) Solutions, (i) Buffer A: 0.1 M sodium phosphate/0.05 M NaCl (pH 8.5). (ii) Inhibitors: 0.1, 1.0 and 10 mg/ml solutions in buffer A containing 0.02% human albumin. (iii) Substrates: 1 mM of S1 and 2 mM of S2 in distilled water.
(§3) (b) Preparation of plasma clots. Platelet rich plasma samples (200 μl) placed in glass tubes were incubated at room temperature with 80 μl 40 mM CaCl2 for 60 min. The clots were washed with 2 ml aliquots of saline (0.9% NaCl) with gentle agitation to remove unbound enzymes In case of successful washing the optical density of the reaction mixture of wash and S1 is less than 5% of the control. The plasma clot thus obtained was kept under saline in the tube until use.
(§4) (c) Assessment of the enzyme inhibition in the clots. After removal of saline, the plasma clot was incubated at 37° C. with 400 μl inhibitor (or buffer A as negative control) for 5 min. and with 100 μl substrate S1 or S3 for 30 min., then the reaction was stopped with 100 μl 50% acetic acid. 150 μl portions of the reaction mixtures were placed in the wells of a microtiter plate and read at 405 nm (ELISA READER 800, Bio-Tek Instruments Inc. Winooski, Vt., USA). IC50 values were generated from the extinction data graphically.

[2] = target: clot-bound factor Xa (Homo sapiens, UniProt P00742); assay: Enzyme inhibition in platelet-rich plasma clots, chromogenic substrate Moc-D-Chg-Gly-Arg-pNA; assay type: biochemical
Chain of clot-bound factor Xa (P00742 235-488 limits assumed): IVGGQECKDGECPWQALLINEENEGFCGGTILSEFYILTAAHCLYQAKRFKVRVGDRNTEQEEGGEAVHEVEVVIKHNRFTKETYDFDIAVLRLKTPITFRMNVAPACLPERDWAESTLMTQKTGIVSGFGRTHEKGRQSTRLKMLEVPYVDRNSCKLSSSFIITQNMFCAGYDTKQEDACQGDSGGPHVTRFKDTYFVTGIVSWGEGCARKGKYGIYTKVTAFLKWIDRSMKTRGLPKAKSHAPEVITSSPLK
Chain of clot-bound factor Xa (P00742 41-179 limits assumed): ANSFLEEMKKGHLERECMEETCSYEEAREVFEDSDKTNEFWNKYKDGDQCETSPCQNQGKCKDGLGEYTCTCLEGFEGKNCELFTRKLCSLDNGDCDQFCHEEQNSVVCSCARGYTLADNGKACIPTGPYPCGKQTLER
Procedure: as §1, §2, §3, §4

[3] = test system: LPS-treated rats; assay: Survival in a rat model for disseminated intravascular coagulation; assay type: in vivo; settings: for Effectiveness on survival compared with reference C (in words): LPS-treated rats; for Survival rate %: rats, 30 mg/kg LPS i.v.
[4] = target: tissue plasminogen activator (tPA) (Homo sapiens, UniProt P00750); assay: Fibrin plate assay, tissue plasminogen activator; assay type: biochemical; settings: reduction of lysed area to 50% of control, read-out: LA50 tPA
Chain of tissue plasminogen activator (tPA) (P00750 36-562, species assumed): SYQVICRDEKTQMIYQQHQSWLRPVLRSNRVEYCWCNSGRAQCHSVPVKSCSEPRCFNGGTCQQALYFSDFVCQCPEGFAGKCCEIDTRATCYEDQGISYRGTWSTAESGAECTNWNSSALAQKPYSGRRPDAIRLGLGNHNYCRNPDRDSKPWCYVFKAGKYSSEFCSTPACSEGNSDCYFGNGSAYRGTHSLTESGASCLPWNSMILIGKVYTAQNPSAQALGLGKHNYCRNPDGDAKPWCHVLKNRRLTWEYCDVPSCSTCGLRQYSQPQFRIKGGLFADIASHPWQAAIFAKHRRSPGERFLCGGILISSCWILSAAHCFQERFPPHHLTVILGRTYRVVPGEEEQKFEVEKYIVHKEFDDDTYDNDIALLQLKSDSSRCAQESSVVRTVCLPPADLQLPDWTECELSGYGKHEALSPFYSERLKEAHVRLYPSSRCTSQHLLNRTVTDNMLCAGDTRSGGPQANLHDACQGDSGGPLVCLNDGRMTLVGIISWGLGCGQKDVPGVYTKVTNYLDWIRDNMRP
Excerpt: (§5) Inhibitory effects of the compounds of the invention on plasmin (PL) and plasmin generation by plasminogen (Plogen) activators, such as tissue plasminogen activator (tPA), and urokinase (UK) were examined by the fibrin plate assay. (See e.g., Bagdy, D., Barabás, E., Bajusz, S., and Széll, E., Thromb. Haemostas., 67:325-330 (1992); Barabás, E. Szell, E. and Bajusz, S, Blood Coagulation and Fibrinolysis, 4: 243 (1993)) The results are shown in Table 1, Column C. With a few exceptions the analogues are somewhat more inhibitory than Efegatran against the three fibrinolytic enzymes.

[5] = test system: citrated human plasma (exogenous thrombin); assay: Thrombin time (TT) plasma clotting assay; assay type: biochemical; settings: thrombin 2.5 NIH U/ml
Procedure: (§6) The inhibitory effect on plasma coagulation was evaluated in the thrombin time (TT), activated partial thromboplastin time (APTT) and prothrombin time (PT) assays by using citrated human plasma as substrate [Bagdy, D. et. al.: Thromb. Haemostas. 67, 325 (1992)]. The TT assay measures the inhibition of a single step, the coagulation of fibrinogen on the action of exogenous thrombin (final concentration 2.5 NIH U/ml). Clotting of plasma in the APTT and PT assays was induced by recalcification. Endogenous thrombin generated could theoretically be present at a final concentration as high as 50 NIH U/ml (APTT, PT). These assays detect the sum of inhibitory actions on fibrin formation and thrombin generation, which includes several proteolytic reactions mediated by either thrombin or other enzymes, e.g. fXa. Anticlotting activity is expressed in CT2, which is the concentration (nM) required to double the clotting time.

[6] = test system: citrated human plasma; assay: Prothrombin time (PT) plasma clotting assay; assay type: biochemical
Procedure: as §6

[7] = target: plasmin (PL) (Homo sapiens, UniProt P00747); assay: Fibrin plate assay, plasmin; assay type: biochemical; settings: reduction of lysed area to 50% of control, read-out: LA50 PL
Chain of plasmin (PL) (P00747 581-810 limits assumed, species assumed): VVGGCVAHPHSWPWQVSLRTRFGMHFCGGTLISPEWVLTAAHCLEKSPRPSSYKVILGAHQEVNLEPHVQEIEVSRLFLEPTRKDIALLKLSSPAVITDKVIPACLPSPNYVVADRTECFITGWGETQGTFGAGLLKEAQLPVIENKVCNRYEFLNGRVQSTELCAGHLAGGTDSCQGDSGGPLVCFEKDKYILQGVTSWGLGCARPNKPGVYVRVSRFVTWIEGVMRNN
Chain of plasmin (PL) (P00747 97-580 limits assumed, species assumed): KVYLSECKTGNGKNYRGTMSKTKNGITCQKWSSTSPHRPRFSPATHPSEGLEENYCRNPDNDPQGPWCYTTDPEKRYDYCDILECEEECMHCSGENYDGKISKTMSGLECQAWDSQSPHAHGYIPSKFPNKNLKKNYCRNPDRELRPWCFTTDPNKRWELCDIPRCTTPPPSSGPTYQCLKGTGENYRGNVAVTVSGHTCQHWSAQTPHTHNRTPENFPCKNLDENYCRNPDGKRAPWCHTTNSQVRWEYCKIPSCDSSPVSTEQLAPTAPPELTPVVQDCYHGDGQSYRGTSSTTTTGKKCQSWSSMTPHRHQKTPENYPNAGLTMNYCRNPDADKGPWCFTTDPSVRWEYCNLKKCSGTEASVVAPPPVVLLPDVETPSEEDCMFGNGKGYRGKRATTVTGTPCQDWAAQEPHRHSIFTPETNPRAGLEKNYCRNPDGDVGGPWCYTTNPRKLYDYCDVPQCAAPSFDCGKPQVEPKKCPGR
Excerpt: as §5

[8] = test system: citrated human plasma; assay: Activated partial thromboplastin time (APTT) plasma clotting assay; assay type: biochemical
Procedure: as §6

[9] = target: urokinase (UK) (Homo sapiens, UniProt P00749); assay: Fibrin plate assay, urokinase; assay type: biochemical; settings: reduction of lysed area to 50% of control, urokinase, read-out: LA50 UK
Excerpt: as §5

[10] = test system: endotoxin-treated rabbits; assay type: in vivo, rabbit
[11] = 0.75 mg/kg bolus + infusion, 0 hours
[12] = 0.75 mg/kg bolus + infusion, 4 hours
[13] = 0.75 mg/kg bolus + infusion, 5 hours
[14] = 0.75 mg/kg bolus + infusion, 6 hours
[15] = 0.75 mg/kg bolus + infusion, 7 hours
[16] = 0.75 mg/kg bolus + infusion, 8 hours
[17] = 1.0 mg/kg bolus + infusion, 0 hours
[18] = 1.0 mg/kg bolus + infusion, 4 hours
[19] = 1.0 mg/kg bolus + infusion, 5 hours
[20] = 1.0 mg/kg bolus + infusion, 6 hours
[21] = 1.0 mg/kg bolus + infusion, 7 hours
[22] = 1.0 mg/kg bolus + infusion, 8 hours
[23] = 1.5 mg/kg bolus + infusion, 0 hours
[24] = 1.5 mg/kg bolus + infusion, 4 hours
[25] = 1.5 mg/kg bolus + infusion, 5 hours
[26] = 1.5 mg/kg bolus + infusion, 6 hours
[27] = 1.5 mg/kg bolus + infusion, 7 hours
[28] = 1.5 mg/kg bolus + infusion, 8 hours
[29] = endotoxin-treated rabbits, 0.25 mg/kg/h infusion
[30] = endotoxin-treated rabbits, 0.5 mg/kg/h infusion
[31] = endotoxin-treated rabbits, 50 U/kg/h
[32] = endotoxin-treated rabbits, 100 U/kg/h

## CN[C@H](CC1CCCCCC1)C(=O)N1CCC[C@H]1C(=O)N[C@H](C=O)CCCNC(=N)N [Compound 2, N-methyl-D-cycloheptylalanyl-L-prolyl-L-arginine aldehyde]
[1]
  Inhibition of clot-bound thrombin compared with Efegatran (in words): surpass Efegatran
  IC50: 0.093 µM
[2]
  IC50: 0.102 µM
[3]
  Effectiveness on survival compared with reference C (in words): more effective than reference C
[3]; [11]
  Survival rate %: 100%
[3]; [12]
  Survival rate %: 86%
[3]; [13]
  Survival rate %: 78%
[3]; [14]
  Survival rate %: 57%
[3]; [15]
  Survival rate %: 57%
[3]; [16]
  Survival rate %: 50%
[3]; [17]
  Survival rate %: 100%
[3]; [18]
  Survival rate %: 100%
[3]; [19]
  Survival rate %: 100%
[3]; [20]
  Survival rate %: 100%
[3]; [21]
  Survival rate %: 90%
[3]; [22]
  Survival rate %: 90%
[3]; [23]
  Survival rate %: 100%
[3]; [24]
  Survival rate %: 100%
[3]; [25]
  Survival rate %: 100%
[3]; [26]
  Survival rate %: 100%
[3]; [27]
  Survival rate %: 100%
[3]; [28]
  Survival rate %: 100%
[4]
  IC50: 14 µM
[5]
  CT2 TT (concentration required for doubling the clotting time): 118 nM
[6]
  CT2 PT (concentration required for doubling the clotting time): 876 nM
[7]
  IC50: 16 µM
[8]
  CT2 APTT (concentration required for doubling the clotting time): 315 nM
[9]
  IC50: 18 µM

## CN[C@H](Cc1ccccc1)C(=O)N1CCC[C@H]1C(=O)N[C@H](C=O)CCCN=C(N)N [C, D-MePhe-Pro-Arg-H, reference compound]
[1]
  IC50: 0.375 µM
[2]
  IC50: 1 µM
[3]; [11]
  Survival rate %: 100%
[3]; [12]
  Survival rate %: 93%
[3]; [13]
  Survival rate %: 73%
[3]; [14]
  Survival rate %: 67%
[3]; [15]
  Survival rate %: 33%
[3]; [16]
  Survival rate %: 27%
[3]; [17]
  Survival rate %: 100%
[3]; [18]
  Survival rate %: 83%
[3]; [19]
  Survival rate %: 83%
[3]; [20]
  Survival rate %: 66%
[3]; [21]
  Survival rate %: 58%
[3]; [22]
  Survival rate %: 50%
[3]; [23]
  Survival rate %: 100%
[3]; [24]
  Survival rate %: 100%
[3]; [25]
  Survival rate %: 100%
[3]; [26]
  Survival rate %: 100%
[3]; [27]
  Survival rate %: 92%
[3]; [28]
  Survival rate %: 92%
[4]
  IC50: 132 µM
[5]
  CT2 TT (concentration required for doubling the clotting time): 87 nM
[6]
  CT2 PT (concentration required for doubling the clotting time): 2915 nM
[7]
  IC50: 54 µM
[8]
  CT2 APTT (concentration required for doubling the clotting time): 622 nM
[9]
  IC50: 82 µM
[10]; [29]
  Lethality %, 2 hrs: 7%
  Lethality no. died/treated animals, 2 hrs: 1/14
  Lethality %, 4 hrs: 36%
  Lethality no. died/treated animals, 4 hrs: 5/14
[10]; [30]
  Lethality %, 2 hrs: 7%
  Lethality no. died/treated animals, 2 hrs: 1/15
  Lethality %, 4 hrs: 40%
  Lethality no. died/treated animals, 4 hrs: 6/15

## CN[C@@H](C(=O)N1CC[C@H]1C(=O)N[C@H](C=O)CCCNC(=N)N)C1CCCCC1 [Compound 4, N-methyl-D-cyclohexylglycyl-L-azetidine-2-carbonyl-L-arginine aldehyde] (H-[dNMeChg]-[Aze]-Arg-aldehyde)
[1]
  Inhibition of clot-bound thrombin compared with Efegatran (in words): surpass Efegatran
  IC50: 0.245 µM
[2]
  IC50: 0.457 µM
[3]
  Effectiveness on survival compared with reference C (in words): more effective than reference C
[3]; 0.5 mg/kg bolus + infusion, 0 hours
  Survival rate %: 100%
[3]; 0.5 mg/kg bolus + infusion, 4 hours
  Survival rate %: 93%
[3]; 0.5 mg/kg bolus + infusion, 5 hours
  Survival rate %: 87%
[3]; 0.5 mg/kg bolus + infusion, 6 hours
  Survival rate %: 87%
[3]; 0.5 mg/kg bolus + infusion, 7 hours
  Survival rate %: 87%
[3]; 0.5 mg/kg bolus + infusion, 8 hours
  Survival rate %: 80%
[3]; [11]
  Survival rate %: 100%
[3]; [12]
  Survival rate %: 100%
[3]; [13]
  Survival rate %: 100%
[3]; [14]
  Survival rate %: 100%
[3]; [15]
  Survival rate %: 92%
[3]; [16]
  Survival rate %: 85%
[3]; [23]
  Survival rate %: 100%
[3]; [24]
  Survival rate %: 100%
[3]; [25]
  Survival rate %: 100%
[3]; [26]
  Survival rate %: 100%
[3]; [27]
  Survival rate %: 100%
[3]; [28]
  Survival rate %: 100%
[4]
  IC50: 12 µM
[5]
  CT2 TT (concentration required for doubling the clotting time): 101 nM
[6]
  CT2 PT (concentration required for doubling the clotting time): 2921 nM
[7]
  IC50: 32 µM
[8]
  CT2 APTT (concentration required for doubling the clotting time): 677 nM
[9]
  IC50: 16 µM

## N=C(N)NCCC[C@@H](C=O)NC(=O)[C@@H]1CCCN1C(=O)C(O)CCc1ccccc1 (stereo partly drawn) [Compound C3, hPla-Pro-Arg-H]
[10]; [30]
  Lethality %, 2 hrs: 6%
  Lethality no. died/treated animals, 2 hrs: 1/18
  Lethality %, 4 hrs: 56%
  Lethality no. died/treated animals, 4 hrs: 10/18
[10]; endotoxin-treated rabbits, relative to endotoxin alone
  Increase in lethality: ~1.8 fold

## N=C(N)NCCC[C@@H](C=O)NC(=O)[C@@H]1CCCN1C(=O)[C@H](O)C1CCCCCC1 [Compound C1, reference compound]
[1]
  IC50: 0.524 µM
[2]
  IC50: 0.2 µM
[4]
  IC50: 74 µM
[5]
  CT2 TT (concentration required for doubling the clotting time): 120 nM
[6]
  CT2 PT (concentration required for doubling the clotting time): 1254 nM
[7]
  IC50: 83 µM
[8]
  CT2 APTT (concentration required for doubling the clotting time): 333 nM
[9]
  IC50: 120 µM
[10]; compared with endotoxin alone
  Effect on lethality of endotoxin-treated rabbits (in words): no effect on lethality
[10]; [30]
  Lethality %, 2 hrs: 0%
  Lethality no. died/treated animals, 2 hrs: 0/16
  Lethality %, 4 hrs: 31%
  Lethality no. died/treated animals, 4 hrs: 5/16

## heparin
[10]; [31]
  Lethality %, 2 hrs: 0%
  Lethality no. died/treated animals, 2 hrs: 0/17
  Lethality %, 4 hrs: 35%
  Lethality no. died/treated animals, 4 hrs: 6/17
[10]; [32]
  Lethality %, 2 hrs: 0%
  Lethality no. died/treated animals, 2 hrs: 0/19
  Lethality %, 4 hrs: 37%
  Lethality no. died/treated animals, 4 hrs: 7/19
